Source: ChEMBL document CHEMBL1148909, “Antineoplastic agents. 535. Isolation and structure of plakorstatins 1 and 2 from the Indo-Pacific sponge Plakortis nigra” (2004)
Converted amounts (≈) assume the structure as drawn.

System: P388
Test: Growth inhibition of mouse P388 cells
Format: functional
Conditions: read-out: ED50 (the source's name)

## CC/C(=C\[C@@]1(CC)C[C@H](CC)[C@H](CC(=O)OC)OO1)[C@H]1O[C@H]1CC (single isomer, unassigned) [PLAKORSTATIN 1]
  EC50: 1.1 µg/mL (≈ 3.23 µM)

## CC/C(=C\[C@@]1(CC)C[C@H](CC)[C@H](CC(=O)OC)OO1)[C@@H]1O[C@@H]1CC (single isomer, unassigned) [PLAKORSTATIN 2]
  EC50: 0.91 µg/mL (≈ 2.67 µM)
